How the values were obtained:
[1] = test system: dihydrotestosterone secretion in TM3 cells; assay: Dihydrotestosterone secreted by TM3 cells (ELISA); format: cell-based, mouse; conditions: sildenafil 200 μg/mL, positive control in dihydrotestosterone test, FIG. 16
Procedure: 3. Dihydrotestosterone (DHT) Content
TM3 cells was cultured with the oyster peptide culture solution for 24 h, the obtained culture solution was centrifuged, a supernatant was taken and mixed uniformly, and the content of dihydrotestosterone was detected according to instructions of ELISA kit.
Operation procedure for detecting dihydrotestosterone: (1) Standards were added into standard wells at 50 μL/well. (2) 40 μL of sample diluent was added to sample wells and then 10 μL of the sample to be tested was added, and nothing was added to the blank wells. (3) The reaction wells were sealed with the plate-sealing film and incubated at 37° C. for 45 min. […] (10) A stop solution was added at 50 μL/well and mixed uniformly and then the OD450 value was measured.
Dihydrotestosterone is a steroid hormone secreted by testes and a main male hormone in the human body, is related to the development of male secondary sexual characteristics and plays an important role in maintaining normal sexual desire. In this test example, the oyster peptide culture solutions of Example 1 at different concentrations and the oyster peptide culture solutions of Examples 1-3 and Comparative Examples 1-4 at the same concentration were used to treat TM3 cells for 24 h, and then the supernatants of cells were collected, and the contents of dihydrotestosterone secreted by the cells were measured by the ELISA method. […]

[2] = test system: NO content in TM3 cells; assay: NO content in TM3 cells (NO determination kit); format: cell-based, mouse; conditions: sildenafil 200 μg/mL, vs control group (p<0.05), FIG. 18
Procedure: 4. Detection of NO Content
TM3 cells were cultured with the oyster peptide culture solution for 24 h, the obtained culture solution was centrifuged, a supernatant was taken and mixed uniformly, and the content of NO was detected according to instructions of NO determination kit.
Operation procedure for detecting NO: (1) Reagent preparation: all reagents were taken out and equilibrated to room temperature for use. (2) 100 μM standard working solution: 5 μL of concentrated standard was added to 495 μL of reaction buffer and mixed well. […] After the incubation was over, the microplate was taken out, placed into an incubator at 37° C. and further incubated for 60 min, and then taken out and placed into a microplate reader for reading at 540 nm. (5) Quantitative calculation of total nitric oxide in samples:
NO is a small fat-soluble molecule with unstable chemical properties and is produced by a catalyzed reaction of nitric oxide synthase in a body, and it can cause the expansion of blood vessels in the body. […] The effect of the oyster peptide on the NO content in TM3 cells was detected according to the instructions of NO determination kit. […]

In the case of `CCCc1nn(C)c2c(=O)[nH]c(-c3cc(S(=O)(=O)N4CCN(C)CC4)ccc3OCC)nc12` [sildenafil], the “dihydrotestosterone secreted by TM3 cells” value [1] is reported as “significantly promoting” and the “NO content in TM3 cells” value [2] is reported as “increased significantly”.

From patent US12389931B2, “Oyster peptide with effect of improving sexual function and preparation method thereof” (priority 2019, dated 2025)
